# Tested on: Normal human epidermal keratinocytes
# Experiment: Action of activating epidermal cells (MTT reduction)
# Assay type: cell-based
# Conditions: for Index (%) Mean ± S.D.: 48 h, untreated cells = 100
# Experimental: Normal human epidermal keratinocytes were seeded on 96-well plates at the density of 5.0×10^3 cells/well using a HuMedia KG2 medium (KG2). 24 hours after seeding, the above-mentioned medium was replaced with a HuMedia KB2 medium (KB2) comprising the test sample. AOH and AHX (2-azahypoxanthine) were used as test samples, KG2 as a positive control (P. C.) for the cell activating action was treated instead of the test sample, and cells which were not treated with the samples were used as a negative control. After culturing for 48 hours, the above-mentioned medium was replaced with KB2 comprising 0.2 mg/mL of MTT to perform culturing for 1 hour. After removing the medium, the absorbance at 550 nm and 650 nm of the cell lysate in which 2-propanol was added to lyse the cells was measured. The amount of MTT reduced to blue formazan was obtained by subtracting the absorbance at 650 nm, which was derived from the cell turbidity, from the absorbance at 550 nm. The action of activating epidermal keratinocytes was shown as Index (%), which is a percentage of the absorbance of the cells, which was treated with the test samples, to the absorbance of the cells, which was not treated with the samples (negative control), with the amount of MTT reduced as an index.
smiles,measurement,setting,value
"O=c1[nH]nnc2[nH]cnc12 [AHX, 7H-imidazo[4,5-d][1,2,3]triazin-4(3H)-one, reference compound]",Index (%) Mean ± S.D.,3.9 μg/mL,100.6 ± 3%
same,Index (%) Mean ± S.D.,7.8 μg/mL,96.1 ± 2.7%
same,Index (%) Mean ± S.D.,15.6 μg/mL,94 ± 5.9%
same,Index (%) Mean ± S.D.,31.3 μg/mL,87.1 ± 4.5%
same,Index (%) Mean ± S.D.,62.5 μg/mL,80.2 ± 1.8%
same,Index (%) Mean ± S.D.,125 μg/mL,77.4 ± 2^ %
same,Index (%) Mean ± S.D.,250 μg/mL,78.4 ± 1.8%
same,Index (%) Mean ± S.D.,500 μg/mL,74.2 ± 1.9%
same,change in Index,concentration of 31.3 μg/mL or more,significantly reduced
same,proliferative effect / cell activating action,epidermal keratinocytes,did not have a proliferative effect
